Patent US20240165054A1, “TREATMENT” (Verona Pharma PLC, priority 2022, published 2024)

Legend:
[1] = tested on: patients with moderate to severe COPD; assay: Clinical study of nebulised ensifentrine vs placebo in COPD: moderate/severe COPD exacerbations; format: in vivo, human
Protocol: (§1) A clinical study was conducted to determine the efficacy of ensifentrine in treating COPD compared with placebo. Ensifentrine was administered by nebuliser at a dose of 3 mg twice daily (BID) for 24 weeks. The study was a multi-centre, randomized, double-blind, parallel-group, placebo-controlled trial with around 800 patients and 5:3 randomization.
(§2) The study population included patients aged 40-80 years with moderate to severe COPD (FEV1 30%-70% p.n., FEV1/forced vital capacity [FVC] ratio <0.7, with mMRC≥2). The randomization stratified (a) the use of stable background maintenance LAMA or LABA therapy use (approx. 50%. yes or no) and (b) cigarette smoking (current or former). Inhaled corticosteroid (ICS) maintenance therapy was permitted in up to 20% of patients under certain provisions.
(§3) The primary endpoint of the study was change from baseline in average FEV1 area under the curve (AUC)0-12 h post-dose at week 12. Secondary endpoints of the study included: peak FEV1 over 4 hours post-dose at Week 12; morning trough FEV1 at Week 12; and other endpoints including moderate/severe COPD exacerbations frequency and time to first moderate or severe COPD exacerbation over 24 Weeks.
Exacerbations were defined as worsening of 2 or more major symptoms (dyspnea, sputum volume, and sputum purulence) or worsening of any 1 major symptom together with any 1 of the following minor symptoms: sore throat, colds, fever without other cause, and increased cough or wheeze for at least 2 consecutive days. COPD exacerbations were considered to be of moderate severity if treatment with systemic corticosteroids and/or antibiotics was required and were considered to be severe if hospitalization was required.
The investigational product and placebo were provided in 2.5 mL unit dose format in an ampule and administered via a nebuliser.

[2] = tested on: patients with moderate to severe COPD; assay: Clinical study of nebulised ensifentrine vs placebo in COPD: lung function (FEV1); format: in vivo, human; settings: all subgroups of COPD patients in the study
Protocol: as §1, §2, §3
Baseline FEV1 is the mean of the two measurements taken before study medication on the day of first dosing, i.e. ≤40 minutes and just prior to dosing, pre-dose on day 1. […]

COPD patients = settings: vs placebo; population as given per drug; cited from earlier work

Row | Compound | Reduction in relative risk of moderate or severe COPD exacerbation vs placebo ([1]; 3 mg BID by nebuliser, over 24 weeks, including 52% of patients on background bronchodilator medications) | Reduction in the frequency of COPD exacerbations compared with other treatments ([1]; comparison with literature treatments of Table 4) | Time to first exacerbation / frequency of COPD exacerbations (conclusion) ([1]; over 24 weeks) | Improvement in lung function in subgroups [2] | Rate Reduction (=1-Rate Ratio) of COPD exacerbations (COPD patients)
1 | COc1cc2c(cc1OC)-c1c/c(=N\c3c(C)cc(C)cc3C)n(CCNC(N)=O)c(=O)n1CC2 [Ensifentrine, N-(2-{(2E)-9,10-dimethoxy-4-oxo-2-[(2,4,6-trimethylphenyl)imino]-6,7-dihydro-2H-pyrimido[6,1-α]isoquinolin-3(4H)-yl}ethyl)urea] | approximately 40% | greater reduction in the frequency of COPD exacerbations than other treatments | particularly effective in increasing the time to first exacerbation | improvement in lung function with ensifentrine that was statistically significant | –
2 | CS(=O)(=O)Nc1ccc(C(=O)O[C@@H](Cc2c(Cl)c[n+]([O-])cc2Cl)c2ccc(OC(F)F)c(OCC3CC3)c2)cc1OCC1CC1 [Tanimilast] | – | – | – | – | 13-28% all doses
